Drawing on the supplement of paper PMC10307832, this text covers relative viability for eight cell lines.

Common to all, as to experiment: relative viability (nuclei count vs DMSO), 5 days (fraction); higher = more cells survive
Compound in assay [1]: Cn1nnc2c(C(N)=O)ncn2c1=O [Temozolomide] + C[C@]1(O)C[C@@H](c2nc(-c3ccc4ccc(-c5ccccc5)nc4c3)c3c(N)nccn32)C1 [Linsitinib] (partner 1 µM)
The method, boiled down: (§1)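 Nuclei were stained with Hoechst during a one-step fixation (final 0.05% Triton X-100, 1% formaldehyde, 1 ug/ml Hoechst) carried out 5 days after dosing, then counted on 4× images. The cells, lung cancer lines in 1536-well plates, had been dosed by pin tool the day after seeding with one drug alone or a fixed anchor-drug dose plus five library-drug doses (not always all listed) in √10 steps. Relative viability is the nuclei count in treated wells divided by that in vehicle wells, and each value is the median of duplicate plates.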

Compound in the assay “AZD5582 + Decitabine”: C[C@@H](C(=O)N[C@@H](C1CCCCC1)C(=O)N2CCC[C@H]2C(=O)N[C@@H]3[C@@H](CC4=CC=CC=C34)OCC#CC#CCO[C@@H]5CC6=CC=CC=C6[C@@H]5NC(=O)[C@@H]7CCCN7C(=O)[C@H](C8CCCCC8)NC(=O)[C@H](C)NC)NC [AZD5582] + Nc1ncn([C@H]2C[C@H](O)[C@@H](CO)O2)c(=O)n1 [Decitabine] (partner 2 µM)
Put shortly:
as §1

Compound in the assay “AZD5582 + Phenformin”: C[C@@H](C(=O)N[C@@H](C1CCCCC1)C(=O)N2CCC[C@H]2C(=O)N[C@@H]3[C@@H](CC4=CC=CC=C34)OCC#CC#CCO[C@@H]5CC6=CC=CC=C6[C@@H]5NC(=O)[C@@H]7CCCN7C(=O)[C@H](C8CCCCC8)NC(=O)[C@H](C)NC)NC [AZD5582] + N=C(N)NC(=N)NCCc1ccccc1 [Phenformin] (partner 250 µM)
Put shortly: as §1

Compound in the assay “AZD5582 + Luminespib”: C[C@@H](C(=O)N[C@@H](C1CCCCC1)C(=O)N2CCC[C@H]2C(=O)N[C@@H]3[C@@H](CC4=CC=CC=C34)OCC#CC#CCO[C@@H]5CC6=CC=CC=C6[C@@H]5NC(=O)[C@@H]7CCCN7C(=O)[C@H](C8CCCCC8)NC(=O)[C@H](C)NC)NC [AZD5582] + CCNC(=O)c1noc(-c2cc(C(C)C)c(O)cc2O)c1-c1ccc(CN2CCOCC2)cc1 [Luminespib] (partner 0.01 µM)
The method, boiled down: as §1

Regarding NCI-H596, the relative viability was found to be 1.16 in assay [1] (first compound 0.2 µM); 1.08 in assay [1] (first compound 0.6325 µM); 1.02 in assay [1] (first compound 2 µM); 1.09 in assay [1] (first compound 6.325 µM); 1.02 in assay [1] (first compound 20 µM); 1.02 with AZD5582 + Decitabine (first compound 0.001581 µM). Besides, the relative viability with AZD5582 + Decitabine (first compound 0.01581 µM) was determined as 1.06; with AZD5582 + Decitabine (first compound 0.05 µM) it was 0.39; with AZD5582 + Phenformin (first compound 0.01581 µM), 0.764; in the assay with AZD5582 + Phenformin (first compound 0.05 µM) it was 0.217; with AZD5582 + Luminespib (first compound 0.01581 µM), 0.931; with AZD5582 + Luminespib (first compound 0.05 µM) it was 0.551.
As for EKVX, the relative viability in assay [1] (first compound 0.2 µM) stood at 0.442; in assay [1] (first compound 0.6325 µM) it was 1.05; in assay [1] (first compound 2 µM), 1.04; in assay [1] (first compound 6.325 µM), 1.06; in assay [1] (first compound 20 µM), 0.707; in the assay with AZD5582 + Decitabine (first compound 0.001581 µM), 0.351. The relative viability is 0.377 with AZD5582 + Decitabine (first compound 0.005 µM); 0.294 with AZD5582 + Decitabine (first compound 0.01581 µM); 0.385 with AZD5582 + Decitabine (first compound 0.05 µM); 0.217 with AZD5582 + Phenformin (first compound 0.001581 µM); 0.23 with AZD5582 + Phenformin (first compound 0.005 µM); 0.196 in the assay with AZD5582 + Phenformin (first compound 0.01581 µM). Also, the relative viability in the assay with AZD5582 + Phenformin (first compound 0.05 µM) is 0.228; in the assay with AZD5582 + Luminespib (first compound 0.001581 µM), 0.859; in the assay with AZD5582 + Luminespib (first compound 0.005 µM), 0.972; in the assay with AZD5582 + Luminespib (first compound 0.01581 µM), 0.787; with AZD5582 + Luminespib (first compound 0.05 µM), 0.803.
As for LOU-NH91, the relative viability stood at 0.534 in assay [1] (first compound 0.2 µM); 0.955 in assay [1] (first compound 0.6325 µM); 1.01 in assay [1] (first compound 2 µM); 0.932 in assay [1] (first compound 6.325 µM); 0.505 in assay [1] (first compound 20 µM); 0.803 with AZD5582 + Decitabine (first compound 0.001581 µM). Also, the relative viability with AZD5582 + Decitabine (first compound 0.005 µM) is 0.835; with AZD5582 + Decitabine (first compound 0.01581 µM) it was 0.824; with AZD5582 + Decitabine (first compound 0.05 µM), 0.794; in the assay with AZD5582 + Phenformin (first compound 0.001581 µM) it was 0.716; with AZD5582 + Phenformin (first compound 0.005 µM), 0.698; with AZD5582 + Phenformin (first compound 0.01581 µM), 0.592. The relative viability was 0.741 with AZD5582 + Phenformin (first compound 0.05 µM); 0.391 with AZD5582 + Luminespib (first compound 0.001581 µM); 0.321 with AZD5582 + Luminespib (first compound 0.005 µM); 0.33 with AZD5582 + Luminespib (first compound 0.01581 µM); 0.342 with AZD5582 + Luminespib (first compound 0.05 µM).
Take NCI-H1355: the relative viability in assay [1] (first compound 0.2 µM) came to 0.713; in assay [1] (first compound 0.6325 µM) it was 0.859; in assay [1] (first compound 2 µM) it was 0.796; in assay [1] (first compound 6.325 µM), 0.883; in assay [1] (first compound 20 µM), 0.794; with AZD5582 + Decitabine (first compound 0.001581 µM), 0.359. The relative viability was determined as 0.317 in the assay with AZD5582 + Decitabine (first compound 0.005 µM); 0.357 with AZD5582 + Decitabine (first compound 0.01581 µM); 0.364 in the assay with AZD5582 + Decitabine (first compound 0.05 µM); 0.416 with AZD5582 + Phenformin (first compound 0.001581 µM); 0.426 with AZD5582 + Phenformin (first compound 0.005 µM); 0.381 with AZD5582 + Phenformin (first compound 0.01581 µM). The relative viability in the assay with AZD5582 + Phenformin (first compound 0.05 µM) stood at 0.387; with AZD5582 + Luminespib (first compound 0.001581 µM) it was 0.599; with AZD5582 + Luminespib (first compound 0.005 µM), 0.674; with AZD5582 + Luminespib (first compound 0.01581 µM) it was 0.606; with AZD5582 + Luminespib (first compound 0.05 µM) it was 0.923.
As to SK-LU-1, the relative viability in assay [1] (first compound 0.2 µM) is 1.26; in assay [1] (first compound 0.6325 µM), 1.06; in assay [1] (first compound 2 µM), 1.05; in assay [1] (first compound 6.325 µM), 0.671; in assay [1] (first compound 20 µM), 0.454; with AZD5582 + Decitabine (first compound 0.001581 µM), 0.535. The relative viability was found to be 0.379 with AZD5582 + Decitabine (first compound 0.005 µM); 0.673 with AZD5582 + Decitabine (first compound 0.01581 µM); 0.21 with AZD5582 + Decitabine (first compound 0.05 µM); 0.362 in the assay with AZD5582 + Phenformin (first compound 0.001581 µM); 0.342 in the assay with AZD5582 + Phenformin (first compound 0.005 µM); 0.508 in the assay with AZD5582 + Phenformin (first compound 0.01581 µM). In addition, the relative viability was found to be 0.279 with AZD5582 + Phenformin (first compound 0.05 µM); 0.191 with AZD5582 + Luminespib (first compound 0.001581 µM); 0.185 with AZD5582 + Luminespib (first compound 0.005 µM); 0.194 with AZD5582 + Luminespib (first compound 0.01581 µM); 0.177 with AZD5582 + Luminespib (first compound 0.05 µM).
As for LK-2, the relative viability in assay [1] (first compound 0.2 µM) turned out to be 0.359; in assay [1] (first compound 0.6325 µM), 0.543; in assay [1] (first compound 2 µM) it was 0.418; in assay [1] (first compound 6.325 µM) it was 0.382; in assay [1] (first compound 20 µM), 0.253; with AZD5582 + Decitabine (first compound 0.001581 µM), 0.257. Moreover, the relative viability in the assay with AZD5582 + Decitabine (first compound 0.005 µM) stood at 0.277; with AZD5582 + Decitabine (first compound 0.01581 µM), 0.307; with AZD5582 + Decitabine (first compound 0.05 µM), 0.326; in the assay with AZD5582 + Phenformin (first compound 0.001581 µM), 0.433; with AZD5582 + Phenformin (first compound 0.005 µM) it was 0.588; with AZD5582 + Phenformin (first compound 0.01581 µM), 0.393. For the same cell line, the relative viability with AZD5582 + Phenformin (first compound 0.05 µM) worked out at 0.402; with AZD5582 + Luminespib (first compound 0.001581 µM), 0.178; in the assay with AZD5582 + Luminespib (first compound 0.005 µM), 0.202; with AZD5582 + Luminespib (first compound 0.01581 µM) it was 0.191; with AZD5582 + Luminespib (first compound 0.05 µM) it was 0.171.
With NCI-H650, the relative viability in assay [1] (first compound 0.2 µM) was 1.08; in assay [1] (first compound 0.6325 µM), 0.893; in assay [1] (first compound 2 µM), 1.05; in assay [1] (first compound 6.325 µM), 0.735; in assay [1] (first compound 20 µM), 0.83; with AZD5582 + Decitabine (first compound 0.001581 µM), 0.327. The relative viability came to 0.3 with AZD5582 + Decitabine (first compound 0.005 µM); 0.321 in the assay with AZD5582 + Decitabine (first compound 0.01581 µM); 0.306 with AZD5582 + Decitabine (first compound 0.05 µM); 0.417 with AZD5582 + Phenformin (first compound 0.001581 µM); 0.401 in the assay with AZD5582 + Phenformin (first compound 0.005 µM); 0.342 with AZD5582 + Phenformin (first compound 0.01581 µM). The relative viability with AZD5582 + Phenformin (first compound 0.05 µM) was 0.385; with AZD5582 + Luminespib (first compound 0.001581 µM) it was 0.704; with AZD5582 + Luminespib (first compound 0.005 µM), 0.68; with AZD5582 + Luminespib (first compound 0.01581 µM), 0.745; with AZD5582 + Luminespib (first compound 0.05 µM), 0.636.
In the case of NCI-H2085, the relative viability in assay [1] (first compound 0.2 µM) is 0.865; in assay [1] (first compound 0.6325 µM), 0.919; in assay [1] (first compound 2 µM) it was 0.788; in assay [1] (first compound 6.325 µM) it was 0.994; in assay [1] (first compound 20 µM) it was 0.84; with AZD5582 + Decitabine (first compound 0.001581 µM), 0.527. For the same cell line, the relative viability is 0.644 with AZD5582 + Decitabine (first compound 0.005 µM); 0.608 in the assay with AZD5582 + Decitabine (first compound 0.01581 µM); 0.545 with AZD5582 + Decitabine (first compound 0.05 µM); 0.562 in the assay with AZD5582 + Phenformin (first compound 0.001581 µM); 0.623 in the assay with AZD5582 + Phenformin (first compound 0.005 µM); 0.561 in the assay with AZD5582 + Phenformin (first compound 0.01581 µM). Also, the relative viability stood at 0.542 with AZD5582 + Phenformin (first compound 0.05 µM); 0.435 with AZD5582 + Luminespib (first compound 0.001581 µM); 0.478 with AZD5582 + Luminespib (first compound 0.005 µM); 0.439 in the assay with AZD5582 + Luminespib (first compound 0.01581 µM); 0.493 in the assay with AZD5582 + Luminespib (first compound 0.05 µM).
